Data reported in patent publication US10221179B2, “Substituted pyrazoloquinazolinones and pyrroloquinazolinones as allosteric modulators of group II metabotropic glutamate receptors” (DOMAIN THERAPEUTICS, priority 2014, dated 2019).
Where two headings read alike, the source gives them in different places.

Experiments:
human mGluR2 (hmGluR2) = target: T1, human mGluR2 (hmGluR2) (Homo sapiens, UniProt Q14416); test: Ca++ functional assay, human mGluR2 transiently over-expressed in HEK-293 cells (agonist and negative allosteric modulator modes); format: cell-based; settings: glutamate at EC80, intracellular calcium (Fluo4AM)
T1 construct: expressed in transfected cells; host or cells: HEK-293 cells, transient co-transfection by electroporation
Procedure, shortened: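 HEK-293 cells transiently co-transfected with hmGluR2, a chimeric G protein and two glutamate transporters; Fluo4-AM calcium fluorescence (485/525 nm) on FLIPR. Agonist mode judged against buffer, NAM mode against EC80 glutamate, 3 min recording; 20-concentration curves over 6 logs, variable-slope fit for IC50, duplicate, two independent runs.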

human mGluR3 (hmGluR3) = target: T2, human mGluR3 (hmGluR3) (Homo sapiens, UniProt Q14832); test: Ca++ functional assay, human mGluR3 transiently over-expressed in HEK-293 cells (agonist and negative allosteric modulator modes); format: cell-based; settings: glutamate at EC80, intracellular calcium (Fluo4AM)
T2 construct: expressed in transfected cells; host or cells: HEK-293 cells, transient co-transfection by electroporation
Experimental: Example 127: Human mGluR2 and mGluR3 Evaluation Using Ca^++ Functional Assay
Examples of the present invention were tested successively for their agonist and negative allosteric modulator activities on human mGluR2 (hmGluR2) and mGluR3 (hmGluR3) transiently over-expressed in HEK-293 cells. Compounds exert agonist activity if, by themselves in absence of glutamate, they are able to activate hmGluR2 or hmGluR3; and they exert negative allosteric modulator activity if they decrease the action of glutamate (which is employed at its EC80 concentration).
Cell Culture and Transfection […]
Receptor activity is detected by changes in intracellular calcium measured using the fluorescent Ca^2+ sensitive dye, Fluo4AM (Molecular Probes).
On the day of the assay, culture medium is aspirated and replaced during 3 hours by medium without serum supplemented with 1% Glutamax, 1% Penicillin/Streptomycin and 1% non-essential amino acids. […] Addition of compounds and intracellular Ca^2+ measurements (excitation 485 nm, emission 525 nm) are performed by the fluorescence microplate reader FLIPRTetra (Molecular Devices).
Agonist and negative allosteric modulator activities of compounds are consecutively evaluated on the same cell plate. […] Then, cells are stimulated by an EC80 glutamate concentration and fluorescence is recorded for additional 3 minutes. […]

[1] = read-out: IC50 for human mGluR2 (negative allosteric modulator activity)
[2] = read-out: hmGluR2 negative allosteric modulator activity IC50

T1 sequence (Q14416 19-872): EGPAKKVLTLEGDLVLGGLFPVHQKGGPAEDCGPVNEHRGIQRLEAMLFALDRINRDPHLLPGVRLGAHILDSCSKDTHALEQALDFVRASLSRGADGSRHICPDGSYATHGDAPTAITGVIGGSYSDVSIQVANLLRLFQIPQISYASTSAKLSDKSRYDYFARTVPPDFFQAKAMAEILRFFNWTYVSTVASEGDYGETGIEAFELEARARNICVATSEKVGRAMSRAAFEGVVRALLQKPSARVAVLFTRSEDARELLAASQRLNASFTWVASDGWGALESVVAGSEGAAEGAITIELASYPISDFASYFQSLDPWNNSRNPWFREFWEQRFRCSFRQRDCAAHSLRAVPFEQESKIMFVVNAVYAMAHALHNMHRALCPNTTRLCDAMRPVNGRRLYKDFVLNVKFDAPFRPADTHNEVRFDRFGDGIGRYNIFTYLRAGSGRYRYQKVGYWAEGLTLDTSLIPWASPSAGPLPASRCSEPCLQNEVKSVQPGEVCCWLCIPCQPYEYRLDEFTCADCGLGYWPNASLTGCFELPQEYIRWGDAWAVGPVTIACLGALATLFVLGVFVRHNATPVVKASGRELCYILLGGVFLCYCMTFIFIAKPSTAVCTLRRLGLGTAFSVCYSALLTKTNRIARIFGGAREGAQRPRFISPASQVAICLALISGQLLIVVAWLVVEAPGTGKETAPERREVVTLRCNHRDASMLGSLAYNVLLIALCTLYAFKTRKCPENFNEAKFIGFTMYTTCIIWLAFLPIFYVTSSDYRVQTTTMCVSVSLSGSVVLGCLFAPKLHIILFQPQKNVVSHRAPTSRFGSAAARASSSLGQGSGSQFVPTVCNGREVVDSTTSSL
T2 sequence (Q14832 23-879): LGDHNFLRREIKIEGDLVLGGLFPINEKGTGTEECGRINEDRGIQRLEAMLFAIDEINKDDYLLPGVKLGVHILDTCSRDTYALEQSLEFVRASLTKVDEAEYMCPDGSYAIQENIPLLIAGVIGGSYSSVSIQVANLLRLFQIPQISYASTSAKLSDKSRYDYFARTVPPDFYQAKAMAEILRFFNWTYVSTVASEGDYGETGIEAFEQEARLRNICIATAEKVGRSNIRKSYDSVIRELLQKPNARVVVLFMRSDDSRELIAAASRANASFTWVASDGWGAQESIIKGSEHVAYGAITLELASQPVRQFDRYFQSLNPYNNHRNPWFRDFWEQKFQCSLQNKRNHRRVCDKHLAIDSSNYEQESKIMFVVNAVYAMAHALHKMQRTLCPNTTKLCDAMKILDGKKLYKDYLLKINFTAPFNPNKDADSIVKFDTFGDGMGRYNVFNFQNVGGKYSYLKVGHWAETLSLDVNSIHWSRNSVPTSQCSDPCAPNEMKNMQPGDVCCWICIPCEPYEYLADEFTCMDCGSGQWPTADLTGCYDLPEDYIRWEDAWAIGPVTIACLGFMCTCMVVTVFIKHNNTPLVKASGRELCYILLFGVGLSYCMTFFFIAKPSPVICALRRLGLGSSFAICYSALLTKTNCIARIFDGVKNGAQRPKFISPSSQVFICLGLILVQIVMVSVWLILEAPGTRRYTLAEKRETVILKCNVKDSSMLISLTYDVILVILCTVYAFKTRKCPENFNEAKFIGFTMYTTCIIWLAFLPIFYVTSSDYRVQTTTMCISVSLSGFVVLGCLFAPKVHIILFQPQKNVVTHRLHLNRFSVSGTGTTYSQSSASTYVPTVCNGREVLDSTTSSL

IC50 (human mGluR2 (hmGluR2); [1]) | IC50 (human mGluR2 (hmGluR2); [2]) | IC50 (human mGluR3 (hmGluR3)) | melting point | SMILES
< 100 nM | < 1000 nM | > 1000 nM |  | Cn1c(=O)c2ccccc2n2nc(-c3ccnc(Cl)c3)cc12 [Example 1, 2-(2-Chloro-pyridin-4-yl)-4-methyl-4H-pyrazolo[1,5-a]quinazolin-5-one]
< 100 nM | < 1000 nM | > 1000 nM |  | C=Cc1cc(-c2cc3n(C)c(=O)c4ccccc4n3n2)ccn1 [Example 9, 4-Methyl-2-(2-vinyl-pyridin-4-yl)-4H-pyrazolo[1,5-a]quinazolin-5-one]
 | < 1000 nM |  | 221 to 233 °C | Cn1c(=O)c2ccc(N3CCC(O)CC3)cc2n2nc(-c3ccnc(C4CC4)c3)cc12 [Example 113, 2-(2-Cyclopropyl-pyridin-4-yl)-8-(4-hydroxy-piperidin-1-yl)-4-methyl-4H-pyrazolo[1,5-a]quinazolin-5-one]
 | < 1000 nM |  | 220 to 226 °C | Cn1c(=O)c2ccc(F)cc2n2nc(-c3ccnc(C(F)F)c3)cc12 [Example 114, 2-(2-Difluoromethyl-pyridin-4-yl)-8-fluoro-4-methyl-4H-pyrazolo[1,5-a]quinazolin-5-one]
 | < 1000 nM |  | > 250 °C | Cn1c(=O)c2ccc(N3CCC(O)CC3)cc2n2nc(-c3ccnc(C(F)F)c3)cc12 [Example 115, 2-(2-Difluoromethyl-pyridin-4-yl)-8-(4-hydroxy-piperidin-1-yl)-4-methyl-4H-pyrazolo[1,5-a]quinazolin-5-one]
 | < 1000 nM |  | 210 to 220 °C | Cn1c(=O)c2ccc(F)cc2n2nc(-c3ccnc(C4CCC4)c3)cc12 [Example 116, 2-(2-Cyclobutyl-pyridin-4-yl)-8-fluoro-4-methyl-4H-pyrazolo[1,5-a]quinazolin-5-one]
 | < 1000 nM |  | > 250 °C | Cn1c(=O)c2cc(F)c(N3CC(O)C3)cc2n2nc(-c3ccnc(C(F)(F)F)c3)cc12 [Example 119, 7-Fluoro-8-(3-hydroxy-azetidin-1-yl)-4-methyl-2-(2-trifluoromethyl-pyridin-4-yl)-4H-pyrazolo[1,5-a]quinazolin-5-one]
 | < 1000 nM |  | > 250 °C | Cn1c(=O)c2cc(F)c(OC3COC3)cc2n2nc(-c3ccnc(C(F)(F)F)c3)cc12 [Example 120, 7-Fluoro-4-methyl-8-(oxetan-3-yloxy)-2-(2-trifluoromethyl-pyridin-4-yl)-4H-pyrazolo[1,5-a]quinazolin-5-one]
 | < 1000 nM |  | > 250 °C | Cn1c(=O)c2cc(F)c(NCCC#N)cc2n2nc(-c3ccnc(C(F)(F)F)c3)cc12 [Example 121, 3-[7-Fluoro-4-methyl-5-oxo-2-(2-trifluoromethyl-pyridin-4-yl)-4,5-dihydro-pyrazolo[1,5-a]quinazolin-8-ylamino]-propionitrile]
 | < 1000 nM |  | > 250 °C | Cn1c(=O)c2cc(F)c(N3CCCC3CO)cc2n2nc(-c3ccnc(C(F)(F)F)c3)cc12 (stereo not drawn) [Example 122, 7-Fluoro-8-(2-hydroxymethyl-pyrrolidin-1-yl)-4-methyl-2-(2-trifluoromethyl-pyridin-4-yl)-4H-pyrazolo[1,5-a]quinazolin-5-one]
 | < 1000 nM |  | > 250 °C | CC1CN(c2ccc3c(=O)n(C)c4cc(-c5ccnc(C(F)(F)F)c5)nn4c3c2)CC(C)O1 (stereo not drawn) [Example 125, 8-(2,6-Dimethyl-morpholin-4-yl)-4-methyl-2-(2-trifluoromethyl-pyridin-4-yl)-4H-pyrazolo[1,5-a]quinazolin-5-one]
